Results reported in patent US11572590B2, “Methods for evaluating tumor cell spheroids using 3D microfluidic cell culture device” (Dana-Farber Cancer Institute, Inc., priority 2017, dated 2023).
Read-outs that look alike come from different tables or passages of the source.

Columns and labels:
Experiment in all cases: SelectScreen Kinase Profiling, single point inhibition and IC50 for off-target kinases
Assay type in all cases: biochemical
off-target kinases [1] = biological target: off-target kinases (Homo sapiens, UniProt P16234); conditions: PDGFRA (PDGFR alpha), ATP Km app, ZLYTE
off-target kinases (Homo sapiens, UniProt P16234), sequence (P16234 24-1089): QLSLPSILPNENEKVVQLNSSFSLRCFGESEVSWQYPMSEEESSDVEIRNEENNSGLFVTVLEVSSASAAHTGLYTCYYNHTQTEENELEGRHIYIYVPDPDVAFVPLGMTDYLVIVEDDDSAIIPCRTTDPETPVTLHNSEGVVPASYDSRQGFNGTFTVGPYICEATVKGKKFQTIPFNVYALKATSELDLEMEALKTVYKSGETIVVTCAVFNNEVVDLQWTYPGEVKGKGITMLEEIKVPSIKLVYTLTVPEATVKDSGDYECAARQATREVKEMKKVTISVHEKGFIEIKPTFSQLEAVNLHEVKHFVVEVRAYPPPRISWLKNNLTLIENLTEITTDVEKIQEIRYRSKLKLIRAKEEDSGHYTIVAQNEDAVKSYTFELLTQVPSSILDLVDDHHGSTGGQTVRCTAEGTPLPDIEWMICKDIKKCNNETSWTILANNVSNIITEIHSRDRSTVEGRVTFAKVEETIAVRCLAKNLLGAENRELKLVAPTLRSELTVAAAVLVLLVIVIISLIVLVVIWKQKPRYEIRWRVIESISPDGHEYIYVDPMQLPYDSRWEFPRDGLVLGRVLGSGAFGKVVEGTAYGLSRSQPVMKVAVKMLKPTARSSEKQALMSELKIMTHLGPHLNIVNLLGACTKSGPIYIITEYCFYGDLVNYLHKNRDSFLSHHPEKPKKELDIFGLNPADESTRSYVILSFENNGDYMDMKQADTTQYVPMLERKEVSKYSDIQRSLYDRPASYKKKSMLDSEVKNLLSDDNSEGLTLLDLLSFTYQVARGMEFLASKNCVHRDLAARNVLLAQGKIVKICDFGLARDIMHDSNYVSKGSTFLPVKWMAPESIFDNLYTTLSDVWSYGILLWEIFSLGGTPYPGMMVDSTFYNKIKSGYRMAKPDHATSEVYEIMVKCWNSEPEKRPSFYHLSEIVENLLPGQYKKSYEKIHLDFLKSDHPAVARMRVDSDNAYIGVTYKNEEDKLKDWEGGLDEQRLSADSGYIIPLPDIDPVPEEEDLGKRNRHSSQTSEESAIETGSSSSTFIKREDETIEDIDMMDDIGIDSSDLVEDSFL

off-target kinases [2] = biological target: off-target kinases (Homo sapiens, UniProt Q13705); conditions: ACVR2B, LanthaScreen Binding
off-target kinases (Homo sapiens, UniProt Q13705), sequence (Q13705 19-512): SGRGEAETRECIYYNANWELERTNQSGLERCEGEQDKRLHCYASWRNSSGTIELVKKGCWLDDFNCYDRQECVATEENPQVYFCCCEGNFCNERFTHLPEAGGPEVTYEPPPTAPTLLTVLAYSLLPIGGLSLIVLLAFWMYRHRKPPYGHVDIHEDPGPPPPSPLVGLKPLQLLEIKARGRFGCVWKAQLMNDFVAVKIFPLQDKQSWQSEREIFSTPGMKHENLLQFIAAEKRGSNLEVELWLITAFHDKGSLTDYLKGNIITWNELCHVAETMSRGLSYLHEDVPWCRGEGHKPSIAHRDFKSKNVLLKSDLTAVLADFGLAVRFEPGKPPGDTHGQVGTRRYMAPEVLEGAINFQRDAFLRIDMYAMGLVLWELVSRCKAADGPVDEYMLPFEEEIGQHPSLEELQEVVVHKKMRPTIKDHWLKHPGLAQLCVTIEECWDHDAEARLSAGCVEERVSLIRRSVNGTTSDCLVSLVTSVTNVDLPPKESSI

off-target kinases [3] = biological target: T1, off-target kinases (Homo sapiens, UniProt Q8WXR4); conditions: MYO3B (MYO3 beta), LanthaScreen Binding
T1 sequence (Q8WXR4 1-1341): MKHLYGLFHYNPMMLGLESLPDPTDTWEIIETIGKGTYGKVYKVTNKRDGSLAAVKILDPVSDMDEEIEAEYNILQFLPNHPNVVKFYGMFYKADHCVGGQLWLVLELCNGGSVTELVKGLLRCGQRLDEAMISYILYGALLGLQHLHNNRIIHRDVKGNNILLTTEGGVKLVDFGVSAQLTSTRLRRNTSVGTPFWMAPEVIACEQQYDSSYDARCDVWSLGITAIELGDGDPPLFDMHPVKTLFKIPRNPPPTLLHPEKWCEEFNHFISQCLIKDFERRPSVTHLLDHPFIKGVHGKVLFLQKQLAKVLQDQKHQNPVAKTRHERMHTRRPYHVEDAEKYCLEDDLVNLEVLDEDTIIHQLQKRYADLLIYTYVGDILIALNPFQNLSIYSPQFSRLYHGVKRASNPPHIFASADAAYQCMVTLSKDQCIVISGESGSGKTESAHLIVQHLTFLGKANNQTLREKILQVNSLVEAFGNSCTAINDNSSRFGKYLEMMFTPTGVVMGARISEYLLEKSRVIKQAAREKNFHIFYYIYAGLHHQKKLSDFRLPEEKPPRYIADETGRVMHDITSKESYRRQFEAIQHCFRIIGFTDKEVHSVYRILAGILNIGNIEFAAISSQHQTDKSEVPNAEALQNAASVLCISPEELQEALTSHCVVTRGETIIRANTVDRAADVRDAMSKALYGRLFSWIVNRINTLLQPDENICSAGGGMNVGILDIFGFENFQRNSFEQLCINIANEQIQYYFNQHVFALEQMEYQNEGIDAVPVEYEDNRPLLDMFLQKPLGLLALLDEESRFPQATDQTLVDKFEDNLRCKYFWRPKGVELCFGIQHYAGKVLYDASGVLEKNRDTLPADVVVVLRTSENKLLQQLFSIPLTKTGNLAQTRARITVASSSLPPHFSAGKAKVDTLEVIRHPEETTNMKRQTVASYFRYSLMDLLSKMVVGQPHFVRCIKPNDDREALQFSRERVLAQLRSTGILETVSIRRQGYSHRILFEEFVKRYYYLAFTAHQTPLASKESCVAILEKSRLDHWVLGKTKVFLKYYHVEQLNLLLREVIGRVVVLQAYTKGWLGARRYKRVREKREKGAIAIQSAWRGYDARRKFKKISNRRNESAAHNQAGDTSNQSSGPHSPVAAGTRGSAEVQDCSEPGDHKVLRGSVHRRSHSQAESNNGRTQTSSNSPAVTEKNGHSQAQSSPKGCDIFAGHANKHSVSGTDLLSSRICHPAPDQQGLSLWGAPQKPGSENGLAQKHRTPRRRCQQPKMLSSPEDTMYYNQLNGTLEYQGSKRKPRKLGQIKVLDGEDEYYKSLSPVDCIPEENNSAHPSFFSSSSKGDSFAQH

Structure (SMILES): N#Cc1cc(-c2ncnc(Nc3ccc(N4CCN(C5COC5)CC4)cc3)n2)ccc1OC1CCOCC1 [Compound 1, 5-(4-((4-(4-(oxetan-3-yl)piperazin-1-yl)phenyl)amino)-1,3,5-triazin-2-yl)-2-((tetrahydro-2H-pyran-4-yl)oxy)benzonitrile]
- inhibition (off-target kinases [1]; read-out: % Inhibition 1): 43%
- inhibition (off-target kinases [1]; read-out: % Inhibition 2): 43%
- inhibition (off-target kinases [1]; read-out: % Inhibition Avg): 43%
- inhibition (off-target kinases [2]; read-out: % Inhibition 1): 27%
- inhibition (off-target kinases [2]; read-out: % Inhibition 2): 31%
- inhibition (off-target kinases [2]; read-out: % Inhibition Avg): 29%
- inhibition (off-target kinases [3]; read-out: % Inhibition 1): 17%
- inhibition (off-target kinases [3]; read-out: % Inhibition 2): 20%
- inhibition (off-target kinases [3]; read-out: % Inhibition Avg): 18%
